Laboratory results as given in US6916783B2, “Methods for accelerating bone and cartilage growth and repair” (University of Southern California, priority 1998, dated 2005).
Entries after “also recorded” stand apart in the source; their conditions may differ.

Tests used:
[1] = Effectiveness tests of AII fragments (method not described); details: test not specified
AT2 receptor = molecular target: T1, AT2 receptor (Homo sapiens, UniProt P50052); details: cited from earlier work
T1 sequence (P50052 1-363): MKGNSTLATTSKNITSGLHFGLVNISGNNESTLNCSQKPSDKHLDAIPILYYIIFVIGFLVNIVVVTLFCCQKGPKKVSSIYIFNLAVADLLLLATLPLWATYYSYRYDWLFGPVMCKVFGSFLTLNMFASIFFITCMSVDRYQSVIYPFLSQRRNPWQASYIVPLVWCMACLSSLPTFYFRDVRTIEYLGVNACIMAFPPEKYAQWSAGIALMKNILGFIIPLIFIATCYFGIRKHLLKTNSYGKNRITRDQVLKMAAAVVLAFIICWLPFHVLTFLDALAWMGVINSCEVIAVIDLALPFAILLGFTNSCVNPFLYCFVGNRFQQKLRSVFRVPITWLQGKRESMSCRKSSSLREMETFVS

chondrocytes = experiment: Rabbit chondrocyte proliferation in culture; format: cell-based; details: 10 μg/ml peptide; days 1, 2, and 3 after culture initiation; nuclei counted after Giemsa stain; FIGS. 1-4
Experimental: Chondrocytes were isolated from the cartilage of the knee joints of adult rabbits and cultured according to the method of Okazaki et al. (Ann. Rheum. Dis. 55:181-186, 1996). Briefly, cartilage explants were minced into small pieces (approximately 1.5 mm by 1.5 mm). The tissue pieces were digested at 37° C. sequentially in 0.05% hyaluronidase (415 U/mg protein) for 10 minutes, 0.2% Type III trypsin (10,000 U/mg protein, Sigma) and 0.53 mM EDTA for 15 minutes, and 0.2% Type I collagenase (136 U/mg protein, Sigma) for 30 minutes. The samples were then washed and incubated overnight at 37° C. in 5% CO2 in air in Dulbecco's modified Eagle's medium enriched with 10% fetal calf serum, 3.5 mg/ml glucose, 0.2% Type I collagenase and antibiotics (100 U/ml penicillin and 100 μg/ml streptomycin).
After this incubation, the cells were harvested and washed once with phosphate buffered saline (pH 7.2). The cells were then counted with a hemacytometer and resuspended at 1×10^5 cells/ml in Ham's F12 supplemented with 10% fetal calf serum and antibiotics. A 10 ml aliquot of cells was transferred to collagen coated 25 cm^2 flasks (coated with collagen isolated from rat tail tendons) and incubated at 37° C. in 5% CO2 in air. […] Cell numbers were quantitated by staining the cells with Giemsa stain and counting the number of nuclei detected via microscopy.

Substance | effectiveness in tests [1] | times higher affinity for AT2 than AT1 (AT2 receptor) [times] | effect on chondrocyte proliferation (chondrocytes)
Tyr-Ile-His-Pro-Phe (YIHPF) [AII(4-8)] | not to be effective; also recorded: ineffective in repeated tests | – | –
Asp-Arg-Val-Tyr-Ile-His-Pro-Phe (DRVYIHPF) [AII] | – | 100 | accelerated the chondrocyte proliferation
His-Pro-Phe (HPF) [AII(6-8)] | not to be effective | – | –
